Consider three compounds from patent US12209073B2, “Polymorphs of a dihydroorotate dehydrogenase (DHOD) inhibitor” (KIORA PHARMACEUTICALS GmbH, priority 2022, dated 2025).

≈ marks a conversion by molar mass, not a printed value. Entries after “also recorded” stand apart in the source; their conditions may differ.

A short description of data set [1]: Thermodynamic solubility in FaSSIF. In kind it is physicochemical. Particulars: for XRPD post-TS (residual solid): after thermodynamic solubility in FaSSIF. As for the experimental part: Thermodynamic Aqueous Solubility. Aqueous solubility was determined by suspending sufficient compound in relevant media to give a maximum final concentration of ≥10 mg/ml of the parent free-form of the compound. The suspension was equilibrated at 25° C., on a Heidolph plate shaker set to 750 rpm for 24 hours. The pH of the saturated solution was then measured, and the suspension filtered through a glass fiber C filter (particle retention 1.2 μm) and diluted appropriately. Quantitation was by HPLC with reference to a standard solution of approximately 0.15 mg/ml in DMSO. Different volumes of the standard, diluted and undiluted sample solutions were injected. The solubility was calculated using the peak areas determined by integration of the peak found at the same retention time as the principal peak in the standard injection. [table] In addition to the competitive slurrying, Form A and Form B were both submitted to thermodynamic solubility measurements in FaSSIF media, as well as IDR in pH 7.4 phosphate buffer. The results are shown in Table 19 The full reports for both measurements can be found in Appendix 2—Analytical Service Reports.

Data set [2] can be described thus: Intrinsic dissolution rate (IDR) in pH 7.4 phosphate buffer. In kind it is physicochemical. Particulars: for XRPD post-IDR: after IDR in pH 7.4 phosphate buffer; for Dissolution rate (pH 7.4 buffer): pH 7.4 phosphate buffer. The source says:
In addition, the thermodynamic solubility and the IDR of the two forms was compared in selected media. In addition to the competitive slurrying, Form A and Form B were both submitted to thermodynamic solubility measurements in FaSSIF media, as well as IDR in pH 7.4 phosphate buffer. The results are shown in Table 19 The full reports for both measurements can be found in Appendix 2—Analytical Service Reports.

Data set [3] in a line: Gravimetric Vapor Sorption (GVS). In kind it is physicochemical. As to conditions: for Hygroscopicity (GVS): 0-90% RH; for Hygroscopicity (GVS) / GVS mass uptake, equivalent of water / GVS mass uptake: 25° C.; for XRPD Post-GVS: after GVS isotherm; for GVS mass uptake, equivalent of water / GVS mass uptake: between 0 and 90% RH. As for the experimental part: Gravimetric Vapor Sorption (GVS). Sorption isotherms were obtained using a SMS DVS Intrinsic moisture sorption analyzer, controlled by DVS Intrinsic Control software. The sample temperature was maintained at 25° C. by the instrument controls. The humidity was controlled by mixing streams of dry and wet nitrogen, with a total flow rate of 200 ml/min. The relative humidity was measured by a calibrated Rotronic probe (dynamic range of 1.0-100% RH), located near the sample. The weight change, (mass relaxation) of the sample as a function of % RH was constantly monitored by a microbalance (accuracy ±0.005 mg). Typically, 5-30 mg of sample was placed in a tared mesh stainless steel basket under ambient conditions. The sample was loaded and unloaded at 40% RH and 25° C. (typical room conditions). A moisture sorption isotherm was performed as outlined below (2 scans per complete cycle). The standard isotherm was performed at 25° C. at 10% RH intervals over a 0-90% RH range. Typically, a double cycle (4 scans) was carried out. Data analysis was carried out within Microsoft Excel using the DVS Analysis Suite. [table] The sample was recovered after completion of the isotherm and re-analyzed by XRPD.

Data set [4] can be described thus: Accelerated storage stability (XRPD & HPLC). In kind it is physicochemical. The procedure:
Chemical Purity Determination by HPLC. Purity analysis was performed on an Agilent HP1100/Infinity II 1260 series system equipped with a diode array detector and using OpenLAB software. The full method details are provided below in Table 12: [table] HPLC indicated the material to have a purity of 99.6% (FIG. 12A). […] The sample was left for an additional 22 days (total 30 days storage) and re-analyzed by XRPD, appearing as Form A, lacking the additional peaks previously observed (FIG. 13B). It was therefore possible that contamination of sample on the instrument in the previous 8-day timepoint was the likely cause of the additional peaks, rather than a form chance or degradation. […] (92 J/g) (FIG. 16). PLM and SEM images indicate the particles to be a series of spherical agglomerates (ca. 50 to 100 μm in diameter), which consist of small (<10 μm) plate-like crystals (FIGS. 17A-17B). HPLC analysis indicated the sample maintained a high purity of 99.5% (FIG. 18A). […] There is a small hysteresis between adsorption and desorption. The sample was unchanged by XRPD post-GVS analysis. […]

The nature of data set [5]: Competitive slurrying of Form A and Form B. In kind it is physicochemical. As to conditions: competitive slurrying of Form A and Form B in a range of solvents at 5, 25 and 50° C. As for the experimental part: The aim of this work was to investigate the order of stability of the scaled-up Form A and Form B via competitive slurrying of the materials in a range of solvents at 5° C., 25° C. and 50° C.
The proposed solvents were aliquoted (1 ml) into HPLC vials and held at 5° C., 25° C. and 50° C. respectively, equilibrating at 300 rpm. […] The saturated solutions were allowed to equilibrate overnight.
Approximately 300 mg of Form B, prepared as described previously in Example 5, and the Form A were added to a 20 ml scintillation vial. The vial was subjected to turbula mixing for over 2 hours to ensure the mixture was homogenous. Approximately 30 mg of a mixture of Form A and Form B was added to a series HPLC vials. The vials were placed at 5, 25 and 50° C., 300 rpm. The suspensions prepared previously were filtered through a PTFE syringe directly into each vial to suspend the prepared form mixture in a saturated solution of the target solvent. Polymorph turnover was investigated by taking a 30-50 μl aliquot of the suspension and analyzing by XRPD.

A short description of another data set: pKa of PP-001. In kind it is physicochemical. The source says: (§1) The general tested characteristics of 3-(2,3,5,6-tetrafluoro-3′-trifluoromethoxy-biphenyl-4-ylcarbamoyl)-thiophene-2-carboxylic acid (PP-001) are shown below in Table 8.
A short description of data set [6]: LogP (measured) of PP-001. In kind it is physicochemical.
Text: as §1

Data set [7] is described as follows: Solubility in 50 mM phosphate buffer. In kind it is physicochemical.
Text: as §1

A short description of data set [8]: Stability at pH 2, pH 7.4 and pH 8.5. In kind it is physicochemical.
Text: as §1

Data set [9] can be described thus: Stability in artificial gastric juice, simulated intestinal fluid and PBS. In kind it is in vitro ADME.
Text: as §1

A short description of data set [10]: Stability in human plasma. In kind it is in vitro ADME.
Text: as §1

The next data set in a line: Oral bioavailability. As to conditions: in vivo, depending on formulation used.
Text: as §1

Data set [11] in a line: Solubility and solvent selection assessment. In kind it is physicochemical. The procedure:
PP-001 (ca. 20 mg, Batch #1) was treated with increasing aliquots of solvent until either a clear solution or maximum of 80 vol ([…]) of solvent was added. Samples were left for […] at 25° C., 300 rpm, after each solvent addition before observations were recorded. Where possible, samples were heated to 50° C. and further observations were taken. Solutions at 25 or 50° C. were cooled to 5° C. at 0.1° C./min, 300 rpm and held overnight. Any suspensions at 50° C. were subjected to maturation cycling between RT/50° C. (4 hours per cycle). Solvents unsuitable for heating to 50° C. or cooling to 5° C. were subjected to evaporation, antisolvent addition at RT or maturation at RT, depending on the solvent.
After 24 h, any solutions at 5° C. were subjected to evaporation at RT with the lid removed. Samples subjected to evaporation were analyzed once dry. The remaining suspensions were left for 3 days at conditions before being extracted using an SPE cartridge and frit under positive pressure filtration.

The nature of data set [12]: Solvent assessment for lyophilization. As to conditions: maximum of 60 vol. In kind it is physicochemical. The procedure: Preparation and solubility of amorphous PP-001. PP-001 was treated with increasing aliquots of solvent until a maximum of 60 vol (1800 μl) was added in a HPLC vial.
Samples that formed solutions were positive pressure filtered using a PTFE syringe filter to remove any remaining solid particulates. The solutions were then flash frozen in a dry ice/acetone bath and lyophilized overnight to remove the solvent. Solids isolated post-lyophilization were analyzed by XRPD and characterized.

The term thermodynamic solubility denotes solubility found after equilibrating the solid with the medium. Broadly, the pKa is the pH at which an ionisable group is half protonated. A higher pKa goes with a weaker acid or stronger base. One may read the logP as a log measure of how a compound divides between an organic and an aqueous phase. Read a high logP as a more lipophilic compound. What is called solubility is how much of the substance goes into solution per volume. A low value points to a poorly soluble substance. Usually bioavailability stands for dose-corrected exposure relative to a reference, in per cent. Higher therefore signals good availability.

With `O=C(Nc1c(F)c(F)c(-c2cccc(OC(F)(F)F)c2)c(F)c1F)c1ccsc1C(=O)O` [Form A, 3-(2,3,5,6-tetrafluoro-3′-trifluoromethoxy-biphenyl-4-ylcarbamoyl)-thiophene-2-carboxylic acid], the thermodynamic solubility at 24 h in data set [1] (FaSSIF, 25 °C, pH 6.4, fassif, thermodynamic from solid, FaSSIF, 25° C., 24 hours, read-out: Thermodynamic solubility (TS) in FaSSIF) was 760 µg/mL (≈ 1590 µM). Further, the “XRPD post-TS (residual solid)” value in [1] is given as “Unchanged, residual”. Also, the “XRPD post-TS (residual solid)” value in data set [1] (listed as PP-001 Form A) was “largely unchanged; also recorded: XRPD unchanged in form plus NaCl reference peaks”. Moreover, in [2], the “XRPD post-IDR” value was “Unchanged” and the “Dissolution rate (pH 7.4 buffer)” value is listed as 0.071 mg/min/cm^2. Moreover, in data set [3] (listed as PP-001 Form A), the “Hygroscopicity (GVS)” value is recorded as “mass uptake. Sample is non- hygroscopic”, the “XRPD Post-GVS” value is given as “Unchanged” and the GVS mass uptake worked out at 0.12 wt %. For the same compound, the “GVS mass uptake, equivalent of water” value in [3] worked out at 0.03 mol. In [4] (25° C./97% RH, 8 days, listed as PP-001 Form A), the XRPD after storage result was “a small peak was gained at 8.1 2θ angle and a loss of a small peak at 17.6 2θ angle; also recorded: Small peak gain at 8.1 2Θ and a loss of small peaket 17.6”. Besides, in [4] (40° C./75% RH, 8 days, listed as PP-001 Form A), the XRPD after storage result is on record as “Unchanged”. Also, in data set [5], the “Relative thermodynamic stability of the forms” value was “thermodynamically more stable form; also recorded: preferred form over all conditions and solvents tested”.

Turning to `O=C(Nc1c(F)c(F)c(-c2cccc(OC(F)(F)F)c2)c(F)c1F)c1ccsc1C(=O)O` [Form B, 3-(2,3,5,6-tetrafluoro-3′-trifluoromethoxy-biphenyl-4-ylcarbamoyl)-thiophene-2-carboxylic acid], the “Thermodynamic solubility (TS) in FaSSIF” value in [1] (FaSSIF, 25° C., 24 hours) amounted to 930 µg/mL. Further, the “XRPD post-TS (residual solid)” value in data set [1] was “Unchanged, residual”. Further, in data set [2], the “XRPD post-IDR” value is on record as “Unchanged” and the “Dissolution rate (pH 7.4 buffer)” value is recorded as 0.15 mg/min/cm^2. In addition, in data set [3], the “Hygroscopicity (GVS)” value is “non-hygroscopic”; the “XRPD Post-GVS” value was “unchanged”; the GVS mass uptake came out at 0.10 wt %; the “GVS mass uptake, equivalent of water” value worked out at 0.03 mol. For the same compound, in data set [3] (listed as PP-001 Form B), the “XRPD Post-GVS” value is listed as “Unchanged” and the GVS mass uptake is recorded as 0.10 wt %. In [4] (25° C./97% RH, 7 days), the “HPLC purity after storage” value stood at 99.4% and the XRPD after storage entry is “no observable changes”. Further, the XRPD after storage result in data set [4] (25° C./97% RH, 7 days, listed as PP-001 Form B) is given as “Unchanged”. Besides, in data set [4] (40° C./75% RH, 7 days), the “HPLC purity after storage” value was found to be 99.6% and the XRPD after storage entry is “no observable changes”. The XRPD after storage result in [4] (40° C./75% RH, 7 days, listed as PP-001 Form B) was “Unchanged”.

Take `O=C(Nc1c(F)c(F)c(-c2cccc(OC(F)(F)F)c2)c(F)c1F)c1ccsc1C(=O)O` [PP-001, 3-(2,3,5,6-tetrafluoro-3′-trifluoromethoxy-biphenyl-4-ylcarbamoyl)-thiophene-2-carboxylic acid]: the pKa in the data set “pKa of PP-001” is 2.23. The logP in data set [6] was 4.19. Besides, the solubility in [7] (pH 4, aqueous buffer) is 1.4 µg/mL (≈ 2.92 µM); in data set [7] (pH 7.4, aqueous buffer) it was 854 µg/mL (≈ 1780 µM); in [7] (pH 9, aqueous buffer) it was 833 µg/mL (≈ 1740 µM). For the same compound, the “Stability (stable for)” value is on record as “Stable for >16 h at pH 2 (HCl), pH 7.4 (trisbuffer),” in data set [8] (pH 2 (HCl)); “Stable for >16 h at pH 2 (HCl), pH 7.4 (trisbuffer),” in data set [8] (pH 7.4 (tris buffer)); “Stable for >16 h at pH 2 (HCl), pH 7.4 (trisbuffer),” in [8] (pH 8.5 (tris buffer)); “Stable for >6 h in artificial gastric juice, simulated” in data set [9] (PBS pH 7.4); “Stable for >6 h in artificial gastric juice, simulated” in [9] (artificial gastric juice); “Stable for >6 h in artificial gastric juice, simulated” in [9] (simulated intestinal fluid). Further, the “Stability (stable for)” value in [10] is given as “Stable for >6 h in artificial gastric juice, simulated”. The compound further showed a bioavailability in the data set “Oral bioavailability” of 15 to 30%. Moreover, the Solubility in solvents result in data set [11] (25° C., dissolution in volumes <80 vol, in 15 of the solvents tested) is given as “good solubility”; in data set [11] (50° C., IPA, 1-propanol, ACN, MeOH:water (3%), MeOH:water (5%), EtOH:water (5%), IPA:water (5%) and IPA:water (25%)), “Clear solutions”; in data set [11] (aprotic, polar solvents such as THF, DMSO and acetone), “higher solubility”; in data set [11] (heptane, toluene, chloroform and water, up to 80 vol, heated to 50° C.), “remained suspensions”. For the same compound, the Solubility for lyophilization entry in [12] (1,4-dioxane) and in [12] (THF:water (70:30)) was “soluble” each time.
